Reference: publication PMC10552892, “Ebselen oxide and derivatives are new allosteric HER2 inhibitors for HER2‐positive cancers” (Molecular Oncology, 2023)
“Also recorded” adds a separate entry of the source.

Legend:
[1] = biological target: T1, HER2 (pY1248) in NCI-N87 (Homo sapiens, UniProt P04626); test: HER2 activation in NCI-N87 gastric cancer cells, western blot; format: cell-based
T1 construct: host or cells: NCI-N87
Experimental: (A-C) HER2-positive […] (SKBR3, A; NCI-N87, B; BT474, C) treated or not with Ebselen
indicated, were analyzed by western blot to evaluate HER2 activation status using antibodies directed
Proliferation was assessed by Incucyte during 4 days.

[2] = biological target: T2, HER2 (pY1248) in SKOV3 (Homo sapiens, UniProt P04626); test: HER2 activation in SKOV3 ovarian cancer cells, western blot; format: cell-based; conditions: ebselen oxide 0–10 μM 24 h, AG1478 5 μM
T2 construct: host or cells: SKOV3
Experimental: Human bone marrow endothelial cells (HBMECs) kindly provided by Dr. B. Weksler (Weill Medical College of Cornell University, NY) were cultured as described previously. The human breast cancer cell lines [SKBR3 (RRID:CVCL_0033), BT474 (RRID:CVCL_0179), and MDA‐MB‐231 (RRID:CVCL_0062)], the human gastric [NCI‐87 (RRID:CVCL_1603)] and ovarian [SKOV3 (RRID:CVCL_0532)] cancer cell lines were obtained from the American Type Culture Collection (Manassas, VA) and were maintained in DMEM containing 10% FBS. All cell lines were cultured under 5% CO2 at 37 °C. HBMECs were transfected using Amaxa Inc nucleofector system (Kit V and U015 program). […]
Fig. 3 Ebselen oxide inhibits HER2 activation and HER2‐dependent proliferation in gastric and ovarian HER2^+ cancer cells. (A) HER2‐positive NCI‐87 gastric cancer cells were treated with ebselen oxide (0–20 μM) for 24 h, lysed, and analyzed by western blot using anti‐pY1248‐HER2, HER2, and β‐tubulin antibodies. […] (B) HER2‐positive SKOV3 ovarian cancer cells were treated with ebselen oxide (0–10 μM) for 24 h, lysed, and analyzed by western blot using anti‐pY1248‐HER2, HER2, and ezrin antibodies. […] (C, D) Proliferation curves of NCI‐N87 gastric (C) or SKOV3 ovarian (D) cancer cells treated with vehicle or 7–10 μM ebselen oxide measured by MTT assay. […]

[3] = tested on: NCI-N87; test: Proliferation of NCI-N87 cells; format: cell-based, human; conditions: ebselen oxide 7–10 μM, AG1478 5 μM
Experimental: Fig. 3 Ebselen oxide inhibits HER2 activation and HER2‐dependent proliferation in gastric and ovarian HER2^+ cancer cells. (A) HER2‐positive NCI‐87 gastric cancer cells were treated with ebselen oxide (0–20 μM) for 24 h, lysed, and analyzed by western blot using anti‐pY1248‐HER2, HER2, and β‐tubulin antibodies. A representative western blot is shown out of 4 independent experiments. (B) HER2‐positive SKOV3 ovarian cancer cells were treated with ebselen oxide (0–10 μM) for 24 h, lysed, and analyzed by western blot using anti‐pY1248‐HER2, HER2, and ezrin antibodies. A western blot is shown (n = 1). (C, D) Proliferation curves of NCI‐N87 gastric (C) or SKOV3 ovarian (D) cancer cells treated with vehicle or 7–10 μM ebselen oxide measured by MTT assay. Data are mean ± SEM (n = 9–12) of three independent experiments.
Supplementary figure 4: NCI-N87 and SKOV3 cancer cell lines are addicted to the HER2 pathway
(A) NCI-N87 cells were treated (+) or not (-) with a non-specific HER2 inhibitor AG1478 (5 µM). Whole cell lysates were analyzed by western blot with pY1248 HER2, HER2 and pERK antibodies.
(B) SKOV3 cells were treated (+) or not (-) with a non-specific HER2 inhibitor AG1478 (5 µM). Whole cell lysates were analyzed by western blot with pY1248 HER2, HER2, pERK or beta-tubulin antibodies.
(C) Proliferation curves of NCI-N87 treated or not with AG1478 (5 µM). Data are mean ± sem (n=4-6). 2- […]

[4] = tested on: SKOV3; test: Proliferation of SKOV3 cells; format: cell-based, human; conditions: ebselen oxide 7–10 μM, AG1478 5 μM
[5] = biological target: T3, JMHER2/FERME interaction (biot-JMHER2 peptide and GST-FERME, N-terminal FERM domain of ezrin) (Homo sapiens, UniProt P04626); test: AlphaScreen competition of HER2 juxtamembrane peptide / ezrin FERM domain interaction; format: binding; conditions: for Inhibition of HER2-FERME interaction, %: compound 0–50 μM, biot-JMHER2 5 nM; for EC50: read-out: EC50, μM (inhibition of HER2-FERME interaction); for Competition with HER2/FERM interaction / binding affinity for JMHER2: compared to ebselen oxide
T3 construct: purchased Proteogenix
Experimental: Biotinylated peptide derived from HER2 cytosolic juxtamembrane region (JMHER2, […] ) has been synthesized by Proteogenix (Schiltigheim, France). The binding reaction was described previously. Briefly, white 384‐well Optiplates (PerkinElmer, Whalham, MA, USA) were used to prepare GST‐FERME and biotinylated peptide in a binding buffer (PBS, pH 7.4, 5 mM MgCl2, and 0.02% CHAPS). GST‐FERME was incubated with biotinylated‐HER2 for 30 min at room temperature. AlphaScreen® Streptavidin Donor beads (20 μg·mL^−1) and Glutathione AlphaLISA® Acceptor Beads (20 μg·mL^−1) were added to the wells for overnight incubation in the dark and at room temperature. Light signal was detected with the EnVision® multilabel plate reader (PerkinElmer).
Ebselen came out as an interesting hit. Ebselen is a synthetic organoselenium compound with the anti‐inflammatory and antioxidant property that has been evaluated in clinical trials for ischemic stroke and acute hearing loss. However, in vivo, ebselen rapidly reacts with peroxynitrite to form ebselen oxide. […] In addition, using surface plasmon resonance (SPR), we confirmed that both compounds could directly bind to JMHER2 (Fig. 1E,F). […] The slight decrease in HER2 expression was not significant. To examine whether HER2 inhibition by ebselen oxide was dependent on JMHER2/FERME interaction, we transfected HBMEC cells with a previously described glycoprotein D‐tagged HER2 form mutated on the critical amino acids involved in ERM binding (gD‐HER2‐EBM*).

[6] = biological target: T4, HER2 (pY1248) in SKBR3 (Homo sapiens, UniProt P04626); test: HER2 activation (pY1248-HER2) in SKBR3 cells, western/dot blot; format: cell-based; set-up: Inhibition of HER2 activation / HER2 inhibition, %: concentration or dose not given beside the values; conditions: for Inhibition of HER2 activation/activity: HER2+ breast cancer cells (SKBR3 in Fig. S1); for HER2 inhibition, % / EC50: Table 1, HER2+ breast cancer cells (ebselen oxide value equals SKBR3 48 h); for EC50: read-out: EC50, μM (HER2 inhibition)
T4 construct: host or cells: SKBR3

[7] = tested on: HER2+ breast cancer cells; test: HER2-dependent (anchorage-dependent) proliferation, Table 1; format: cell-based, human
From the text: Given the promising effects of ebselen oxide, we then evaluated several structurally related compounds in order to define the structural determinants essential for HER2 binding and inhibition. […] These observations allowed us to define a pharmacophore of ebselen derivatives required for HER2 inhibition where atoms in position Y and R (shown in red in structure) can be modified as followed: Y is either a S or a Se=O and R is either H or Cl or Me but not OMe or CF3 (Table 1).

[8] = biological target: T5, JMHER2 (peptide derived from the cytosolic juxtamembrane sequence of HER2) (Homo sapiens, UniProt P04626); test: Surface plasmon resonance binding to immobilized HER2 juxtamembrane peptide; conditions: analyte 5 or 10 μM, 60 s injection
T5 construct: purchased Proteogenix
Experimental: Interaction was performed on a BIAcore T200 instrument BIAcore (Cytiva Life Sciences, Marlborough, MA, USA); GE Healthcare (Little Chalfont, UK). […] Ebselen or ebselen oxide was used as an analyte and injected at 5 or 10 μM at a flow rate of 25 μL·min^−1 for 60 s.

[9] = set-up: method as in PMID 11546910; conditions: after intravenous injection; cited from earlier work
[10] = set-up: method as in PMID 34299505; conditions: whatever the administered doses; cited from earlier work
[11] = set-up: method as in PMID 23299882; conditions: cited from earlier work
[12] = tested on: main protease of SARS‐CoV‐2; set-up: method as in PMID 33120196; conditions: cited from earlier work
[13] = tested on: SKBR3; test: Incucyte proliferation, single agents and combinations, SKBR3; format: cell-based; conditions: Homo sapiens, SK-BR-3, 96 h; read-out: Reduction/inhibition of cell proliferation
Experimental: (§1) (A–C) Proliferation curves of HER2‐positive (SKBR3, A; BT474, B; NCI‐N87, C) cancer cell lines treated or not with ebselen oxide (10 μM), lapatinib (10–1000 nM), or combination of these agents, as indicated. Proliferation was assessed overtime by Incucyte during 4 days. Data are mean ± SD (n = 8–12) of a representative experiment out of 4 (A), 3 (B), or 2 (C) independent experiments. […] Proliferation was assessed by Incucyte during 4 days. […] Scale bars are […].

[14] = tested on: BT474; test: Incucyte proliferation, single agents and combinations, BT474; format: cell-based; conditions: Homo sapiens, BT-474, 96 h; read-out: Reduction/inhibition of cell proliferation
Experimental: as §1

[15] = tested on: NCI-N87; test: Incucyte proliferation, single agents and combinations, NCI-N87; format: cell-based; conditions: Homo sapiens, NCI-N87, 96 h; read-out: Reduction/inhibition of cell proliferation
Experimental: as §1

[16] = tested on: NCI-N87; test: Anchorage-independent growth (spheroid assay, ULA plates), NCI-N87; format: cell-based, human; conditions: ebselen oxide 10 μM, lapatinib 10 nM, trastuzumab 10 μg·mL−1, alone or combined
Experimental: 5.10^3 cells/24‐well were seeded in a complete medium in ULA plates (Corning® Costar® (Corning, NY, USA) C LS3473‐24EA) in the presence of indicated compounds. Spheroids were imaged 6–8 days later with a phase‐contrast microscope, and their areas were measured using IMAGEJ software.
Proliferation was assessed overtime by Incucyte during 4 days. Data are mean ± SD (n = 8–12) of a representative experiment out of 4 (A), 3 (B), or 2 (C) independent experiments. One‐way ANOVA followed by Sidak multiple comparison test, (*, compared with Vehicle; ° and #, respectively, compared with lapatinib 10 and 1000 nM) ***P < 0.001, ****P < 0.0001. […] Proliferation was assessed by Incucyte during 4 days. Data are mean ± SD (n = 8–12) of a representative experiment out of two independent experiments. […] Images of a representative experiment out of 3 (G) or 4 (H) independent experiments and quantification of the colony total area are shown where data are mean ± SEM. One‐way ANOVA followed by multiple comparison test, *P < 0.05, **P < 0.01. Scale bars are 100 μM.

T4 sequence (P04626 23-1255): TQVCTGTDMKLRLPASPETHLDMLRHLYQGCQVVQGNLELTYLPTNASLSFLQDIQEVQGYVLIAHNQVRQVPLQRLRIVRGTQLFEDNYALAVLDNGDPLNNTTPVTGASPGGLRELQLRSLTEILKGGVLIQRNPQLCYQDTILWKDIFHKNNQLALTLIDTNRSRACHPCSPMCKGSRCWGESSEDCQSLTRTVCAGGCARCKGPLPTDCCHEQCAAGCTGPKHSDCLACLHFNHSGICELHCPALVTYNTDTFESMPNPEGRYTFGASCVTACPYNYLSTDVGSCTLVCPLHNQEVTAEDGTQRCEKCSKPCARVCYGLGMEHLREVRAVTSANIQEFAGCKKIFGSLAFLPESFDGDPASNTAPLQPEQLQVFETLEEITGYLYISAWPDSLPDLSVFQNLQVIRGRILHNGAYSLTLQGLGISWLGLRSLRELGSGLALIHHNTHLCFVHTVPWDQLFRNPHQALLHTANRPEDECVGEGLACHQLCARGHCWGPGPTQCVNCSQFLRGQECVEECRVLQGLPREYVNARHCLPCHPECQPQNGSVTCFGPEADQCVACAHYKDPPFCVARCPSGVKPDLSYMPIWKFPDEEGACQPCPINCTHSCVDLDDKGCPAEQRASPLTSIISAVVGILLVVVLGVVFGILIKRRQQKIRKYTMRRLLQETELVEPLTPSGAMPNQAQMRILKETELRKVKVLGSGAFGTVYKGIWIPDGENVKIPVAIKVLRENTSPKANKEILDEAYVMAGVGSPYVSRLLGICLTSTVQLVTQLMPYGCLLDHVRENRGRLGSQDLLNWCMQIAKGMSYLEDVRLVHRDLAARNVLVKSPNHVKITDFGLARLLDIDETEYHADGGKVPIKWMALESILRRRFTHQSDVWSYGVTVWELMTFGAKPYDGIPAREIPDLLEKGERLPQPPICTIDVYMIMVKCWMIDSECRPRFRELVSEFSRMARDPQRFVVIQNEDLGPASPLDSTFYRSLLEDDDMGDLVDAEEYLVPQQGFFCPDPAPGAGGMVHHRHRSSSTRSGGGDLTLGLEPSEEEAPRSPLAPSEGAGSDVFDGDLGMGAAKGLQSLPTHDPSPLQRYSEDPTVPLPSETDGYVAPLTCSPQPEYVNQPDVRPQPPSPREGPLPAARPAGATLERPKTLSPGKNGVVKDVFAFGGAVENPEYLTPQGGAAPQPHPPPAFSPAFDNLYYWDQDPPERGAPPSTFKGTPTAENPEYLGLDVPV
T1 sequence (P04626 23-1255): as above
T2 sequence (P04626 23-1255): as above

SMILES	Inhibition of HER2-FERME interaction, % ([5]; AlphaScreen, 20 h)	EC50 ([5]; AlphaScreen, 20 h)	Competition with HER2/FERM interaction / binding affinity for JMHER2 [5]	Inhibition of HER2 activation/activity [6]	HER2 inhibition, % [6]	EC50 [6]	Effect on proliferation of HER2+ breast cancer cells [7]	also measured
COc1cc2ncnc(Nc3cccc(Cl)c3)c2cc1OC [AG1478, Tyrphostin AG1478, reference compound]	–	–	–	–	–	–	–	Effect on HER2 activation ([1]; ebselen oxide 0–20 μM 24 h, AG1478 5 μM): decrease; Effect on HER2 activation [2]: decrease; Effect on proliferation [3]: decrease; Effect on proliferation [4]: decrease
Cc1ccc(-n2sc3ccccc3c2=O)cc1 [Analog 1, 2‐(4‐methylphenyl)‐1,2‐benzisothiazol‐3(2H)‐one]	45.0%	0.716 µM	competed	inhibited	65.0%	39.8 µM	reduced	–
O=c1c2ccccc2sn1-c1ccc(Cl)cc1 [Analog 2, 2‐(4‐chlorophenyl)‐1,2‐benzisothiazol‐3(2H)‐one]	40.4%	1.08 µM	competed	inhibited	75.4%	41.7 µM	reduced	–
O=C1c2ccccc2C(=O)N1c1ccccc1 [Analog 4, N‐phenylphtalimide]	47.3%	0.003 µM	greater binding affinity	no or low inhibition	0.0%	–	no or low inhibition	–
CC(C)c1ccc(N2Cc3ccccc3C2=O)cc1 [Analog 5, 2‐(4‐isopropyl phenyl)‐1‐isoindolinone]	49.0%	0.255 µM	greater binding affinity	no or low inhibition	16.3%	2 µM	no or low inhibition	–
Cc1ccc(-n2c(=O)c3ccccc3[s+]2[O-])cc1 (centres unmarked) [Analog 6, 2‐(4‐Methylphenyl)‐1‐oxo‐1,2‐benzothiazol‐3‐one]	43.6%	2.53 µM	–	no or low inhibition	0.2%	–	no or low inhibition	–
O=c1c2ccccc2sn1-c1ccc(C(F)(F)F)cc1 [Analog 7, 2‐[4‐(trifluoromethyl)phenyl]‐1,2‐benzothiazol‐3‐one]	100%	97 µM	drastically reduced	–	–	–	–	–
O=c1c2ccccc2[s+]([O-])n1-c1ccc(Cl)cc1 (centres unmarked) [Analog 8, 2‐(4‐chlorophenyl)‐1‐oxo‐1,2‐benzothiazol‐3‐one]	100%	95.1 µM	drastically reduced	–	–	–	–	–
O=c1c2ccccc2[se]n1-c1ccccc1 [Ebselen]	–	0.044 µM	–	poorly inhibited; also recorded: did not inhibit	14.4%	51.3 µM	–	IC50 ([5]; AlphaScreen, 20 h): 0.044 µM; Direct binding to JMHER2 (SPR) [8]: directly bind; Half-life [9]: 1 to 3 h; Time to maximum serum concentration [9]: 1 h; Tolerability in vivo [10]: always well tolerated; Blood–brain barrier permeation [11]: blood–brain barrier permeant; Inhibition of the main protease of SARS-CoV-2 [12]: highly active
CS(=O)(=O)CCNCc1ccc(-c2ccc3ncnc(Nc4ccc(OCc5cccc(F)c5)c(Cl)c4)c3c2)o1 [lapatinib, Lapatinib ditosylate, reference compound]	–	–	–	–	–	–	–	Effect on HER2 activation, single agents and combination ([6]; SKBR3, ebselen oxide 10 μM, lapatinib 10 nM): partially decreased; Effect on HER2 activation, single agents and combination ([1]; ebselen oxide 10 μM, lapatinib 10 nM): partially decreased; inhibition at 0.01 µM [13]: 39%; inhibition at 0.01 µM [14]: 18%; inhibition at 0.01 µM [15]: 53%; Reduction of anchorage-independent growth (spheroid assay) [16]: 35%
